Results from patent US8134015B2, “Compound inhibiting in vivo phosphorous transport and medicine containing the same” (Kyowa Hakko Kirin Co., Ltd., priority 2003, dated 2012).

Target: T1, rat NaPi-2b (Rattus norvegicus, UniProt Q9JJ09)
T1 construct: expressed in transfected cells; host or cells: Xenopus oocytes injected with cRNA
T1 sequence (Q9JJ09 1-695): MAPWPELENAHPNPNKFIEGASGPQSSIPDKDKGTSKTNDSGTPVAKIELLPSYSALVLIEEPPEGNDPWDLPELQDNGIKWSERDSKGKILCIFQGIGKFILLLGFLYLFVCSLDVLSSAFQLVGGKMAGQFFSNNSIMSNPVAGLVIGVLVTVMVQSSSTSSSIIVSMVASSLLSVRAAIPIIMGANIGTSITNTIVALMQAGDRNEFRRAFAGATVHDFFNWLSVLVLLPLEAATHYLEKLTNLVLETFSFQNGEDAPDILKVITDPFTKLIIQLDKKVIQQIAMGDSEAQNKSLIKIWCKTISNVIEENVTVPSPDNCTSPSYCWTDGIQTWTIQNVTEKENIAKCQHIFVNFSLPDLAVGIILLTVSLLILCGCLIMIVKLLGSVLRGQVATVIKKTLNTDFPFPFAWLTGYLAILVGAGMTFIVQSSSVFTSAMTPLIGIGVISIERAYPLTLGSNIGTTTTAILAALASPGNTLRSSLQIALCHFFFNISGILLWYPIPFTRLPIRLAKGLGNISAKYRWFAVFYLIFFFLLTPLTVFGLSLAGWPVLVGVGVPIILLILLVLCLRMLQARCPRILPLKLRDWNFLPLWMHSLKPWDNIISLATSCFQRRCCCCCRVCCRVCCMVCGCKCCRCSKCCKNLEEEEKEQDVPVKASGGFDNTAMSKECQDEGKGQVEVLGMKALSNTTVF
Test: Sodium-dependent phosphate uptake of Xenopus oocytes which expressed NaPi-2b (32P)
Assay type: cell-based
Details: for IC50: Xenopus oocytes expressing rat NaPi-2b, 32P radioactive phosphorus, read-out: IC50 (phosphate uptake inhibitory activity); for inhibition at 300 µM: phosphate uptake, oocytes expressing rat NaPi-2b, determined from inhibition curve
Method in brief: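 Rat NaPi-2b cloned from small-intestine cDNA; cRNA injected into Xenopus oocytes, expression for 2 days. Phosphate uptake inhibition measured with 32P; percent inhibition at 300 μM and 100 μM read from the same inhibition curve.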

IC50 [µM]	inhibition at 300 µM [%]	Compound
–	85.2	O=C(Nc1ccc(Br)cc1C(=O)NNCc1ccc(Cl)c(C(F)(F)F)c1)c1cccc(CSCCO)c1 [Compound 546, N-{4-Bromo-2-[N′-(4-chloro-3-trifluoromethyl-benzyl)-hydrazinocarbonyl]-phenyl}-3-(2-hydroxy-ethylsulfanylmethyl)-benzamide]
5.59	–	CCN(CC)CCNCc1ccc(C(=O)Nc2ccc(Br)cc2C(=O)N/N=C/c2ccc(C)cc2)cc1 [Compound 293, N-[4-Bromo-2-(4-methyl-benzylidene-hydrazinocarbonyl)-phenyl]-4-[(2-diethylamino-ethylamino)-methyl]-benzamide]
4.26	–	COc1ccc(C(=O)Nc2ccccc2C(=O)N/N=C/c2cccc(C#N)c2)cc1OC [Compound 9, N-[2-(3-Cyano-benzylidene-hydrazinocarbonyl)-phenyl]-3,4-dimethoxy-benzamide]
10.3	–	CCN1CC(NCc2ccc(C(=O)Nc3ccc(Br)cc3C(=O)N/N=C/c3ccc(OC)cc3)cc2)CN1CC [Compound 756, N-[4-Bromo-2-(4-methoxy-benzylidene-hydrazinocarbonyl)-phenyl]-4-[(1,2-diethyl-pyrazolidin-4-ylamino)-methyl]-benzamide]
1.02	–	CCN(CC)CCN(CCN(CC)CC)Cc1cccc(C(=O)Nc2ccc(N3CCCCC3)cc2C(=O)N/N=C/c2ccc(Cl)c(C(F)(F)F)c2)c1 [Compound 909, 3-{[Bis-(2-diethylamino-ethyl)-amino]-methyl}-N-[2-(4-chloro-3-trifluoromethyl-benzylidene-hydrazinocarbonyl)-4-piperidin-1-yl-phenyl]-benzamide]
6.71	–	Cc1ccc(/C=N/NC(=O)c2cc(Br)ccc2NC(=O)c2ccc(CNCCN3CCOCC3)cc2)cc1 [Compound 282, N-[4-Bromo-2-(4-methyl-benzylidene-hydrazinocarbonyl)-phenyl]-4-[(2-morpholin-4-yl-ethylamino)-methyl]-benzamide]
2.31	–	Cc1ccc(/C=N/NC(=O)c2cc(Br)ccc2NC(=O)c2cccc(CNCCN3CCOCC3)c2)cc1C [Compound 279, N-[4-Bromo-2-(3,4-dimethyl-benzylidene-hydrazinocarbonyl)-phenyl]-3-[(2-morpholin-4-yl-ethylamino)-methyl]-benzamide]
10.2	–	CCc1ccc(C(=O)Nc2ccc(Br)cc2C(=O)N/N=C/c2ccc(C)c(C)c2)cc1 [Compound 182, N-[4-Bromo-2-(3,4-dimethyl-benzylidene-hydrazinocarbonyl)-phenyl]-4-ethyl-benzamide]
3.28	–	O=C(Nc1ccc(Br)cc1C(=O)N/N=C/c1ccc(F)cc1)c1cccs1 [Compound 158, Thiophene-2-carboxylic acid [4-bromo-2-(4-fluoro-benzylidene-hydrazinocarbonyl)-phenyl]-amide]

More lines, now with the values behind:

Compound	IC50 [µM]	inhibition at 300 µM [%]
CN(Cc1ccc(C(=O)Nc2ccc(Br)cc2C(=O)N/N=C/c2ccc(Cl)c(C(F)(F)F)c2)cc1)CC(O)c1ccc(O)cc1 (stereo not drawn) [Compound 726, N-[4-Bromo-2-(4-chloro-3-trifluoromethyl-benzylidene-hydrazinocarbonyl)-phenyl]-4-({[2-hydroxy-2-(4-hydroxy-phenyl)-ethyl]-methyl-amino}-methyl)-benzamide]	< 3	–
O=C(Nc1sc2c(c1C(=O)N/N=C/c1ccc(Cl)c(C(F)(F)F)c1)CCC2)c1cccc(CN2CCC(CO)CC2)c1 [Compound 820, N-[3-(4-Chloro-3-trifluoromethyl-benzylidene-hydrazinocarbonyl)-5,6-dihydro-4H-cyclopenta[b]thiophen-2-yl]-3-(4-hydroxymethyl-piperidin-1-ylmethyl)-benzamide]	17.9	–
CCN(CC)CCN(Cc1cccc(C(=O)Nc2sc3c(c2C(=O)N/N=C/c2ccc(F)cc2)CCCC3)c1)C(C)=O [Compound 654, 3-{[Acetyl-(2-diethylamino-ethyl)-amino]-methyl}-N-[3-(4-fluoro-benzylidene-hydrazinocarbonyl)-4,5,6,7-tetrahydro-benzo[b]-thiophen-2-yl]-benzamide]	2.03	–
O=C(Nc1ccc(Cl)cc1C(=O)N/N=C/c1ccc(Cl)c(C(F)(F)F)c1)c1cccc(CN(CCO)CCO)c1 [Compound 407, 3-{[Bis-(2-hydroxy-ethyl)-amino]-methyl}-N-[4-chloro-2-(4-chloro-3-trifluoromethyl-benzylidene-hydrazinocarbonyl)-phenyl]-benzamide]	0.57	–
Cc1csc(NC(=O)c2cccc(CSc3nc[nH]n3)c2)c1C(=O)N/N=C/c1ccc(F)cc1 [Compound 553, N-[3-(4-Fluoro-benzylidene-hydrazinocarbonyl)-4-methyl-thiophen-2-yl]-3-(1H-[1,2,4]triazol-3-ylsulfanylmethyl)-benzamide]	2.8	–
COc1ccc(C(=O)Nc2scc(C)c2C(=O)N/N=C/c2ccc(C)c(C)c2)cc1OC [Compound 521, N-[3-(3,4-Dimethyl-benzylidene-hydrazinocarbonyl)-4-methyl-thiophen-2-yl]-3,4-dimethoxy-benzamide]	1.24	–
CCN(CCO)Cc1cccc(C(=O)Nc2ccc(Cl)cc2C(=O)N/N=C/c2ccc(C)c(C)c2)c1 [Compound 426, N-[4-Chloro-2-(3,4-dimethyl-benzylidene-hydrazinocarbonyl)-phenyl]-3-{[ethyl-(2-hydroxy-ethyl)-amino]-methyl}-benzamide]	1.89	–
Cc1ccc(/C=N/NC(=O)c2cc(Br)ccc2NC(=O)c2ccc(CN3CCN(c4ccccn4)CC3)cc2)cc1 [Compound 773, N-[4-Bromo-2-(4-methyl-benzylidene-hydrazinocarbonyl)-phenyl]-4-(4-pyridin-2-yl-piperazin-1-ylmethyl)-benzamide]	–	53.9
O=C(Nc1ccc(Br)cc1C(=O)N/N=C/c1ccc(Cl)c(C(F)(F)F)c1)c1cccc(CS(=O)(=O)CCO)c1 [Compound 678, N-[4-Bromo-2-(4-chloro-3-trifluoromethyl-benzylidene-hydrazinocarbonyl)-phenyl]-3-(2-hydroxy-ethanesulfonylmethyl)-benzamide]	< 3	–
COc1cc(OC)cc(C(=O)Nc2ccc(Br)cc2C(=O)N/N=C/c2ccc(C)cc2)c1 [Compound 119, N-[4-Bromo-2-(4-methyl-benzylidene-hydrazinocarbonyl)-phenyl]-3,5-dimethoxy-benzamide]	0.74	–
CCN(CC)CC(O)COc1ccc(NC(=O)c2cccc(CN(CC(C)O)CC(C)O)c2)c(C(=O)N/N=C/c2ccc(Cl)c(C(F)(F)F)c2)c1 (stereo not drawn) [Compound 952, 3-{[Bis-(2-hydroxy-propyl)-amino]-methyl}-N-[2-(4-chloro-3-trifluoromethyl-benzylidene-hydrazinocarbonyl)-4-(3-diethylamino-2-hydroxy-propoxy)-phenyl]-benzamide]	19.2	–
CCN(CC)CCN(C)Cc1cccc(C(=O)Nc2sc3c(c2C(=O)N/N=C/c2ccc(OCCO)cc2)CCCC3)c1 [Compound 1002, 3-{[(2-Diethylamino-ethyl)-methyl-amino]-methyl}-N-{3-[4-(2-hydroxy-ethoxy)-benzylidene-hydrazinocarbonyl]-4,5,6,7-tetrahydro-benzo[b]thiophen-2-yl}-benzamide]	2.58	–
Cc1ccc(/C=N/NC(=O)c2cc(Br)ccc2NC(=O)c2cccc(C[S+]([O-])CCO)c2)cc1 (stereo not drawn) [Compound 677, N-[4-Bromo-2-(4-methyl-benzylidene-hydrazinocarbonyl)-phenyl]-3-(2-hydroxy-ethanesulfinylmethyl)-benzamide]	< 3	–
COc1ccc(C(=O)Nc2ccc(Br)cc2C(=O)N/N=C/c2ccccn2)cc1OC [Compound 243, N-[4-Bromo-2-(pyridin-2-ylmethylene-hydrazinocarbonyl)-phenyl]-3,4-dimethoxy-benzamide]	–	50.2
COc1ccc(NC(=O)c2cccc(CSCC(O)CO)c2)c(C(=O)N/N=C/c2ccc(C)cc2)c1 (stereo not drawn) [Compound 1018, 3-(2,3-Dihydroxy-propylsulfanylmethyl)-N-[4-methoxy-2-(4-methyl-benzylidene-hydrazinocarbonyl)-phenyl]-benzamide]	0.92	–
COc1ccc(C(=O)Nc2ccc(Cl)cc2C(=O)N/N=C/c2cccc(C)n2)cc1OC [Compound 246, N-[4-Chloro-2-(6-methyl-pyridin-2-ylmethylene-hydrazinocarbonyl)-phenyl]-3,4-dimethoxy-benzamide]	–	32.6
Cc1ccc(/C=N/NC(=O)c2c(NC(=O)c3cccc(CN4CCC(CO)CC4)c3)sc3c2CCC3)cc1 [Compound 817, 3-(4-Hydroxymethyl-piperidin-1-ylmethyl)-N-[3-(4-methyl-benzylidene-hydrazinocarbonyl)-5,6-dihydro-4H-cyclopenta[b]thiophen-2-yl]-benzamide]	36.1	–
CCN(CC)CCN(CCN(CC)CC)Cc1cccc(C(=O)Nc2ccc(N3CCCCC3)cc2C(=O)N/N=C/c2cccc(F)c2)c1 [Compound 908, 3-{[Bis-(2-diethylamino-ethyl)-amino]-methyl}-N-[2-(3-fluoro-benzylidene-hydrazinocarbonyl)-4-piperidin-1-yl-phenyl]-benzamide]	13.2	–
